The values that follow come from PubChem BioAssay AID588343 (Broad Institute, 2011).

For orientation: AC50 means the concentration giving half of the maximal activity seen.

Several values for one entry are separate records, joined by “and”; a condition that tells them apart may be missing. Equal entries are not always repeated. Inconclusive results are not listed.

The assay concerns HEK293 LMP1 TES2 NF-kB luciferase reporter, 16 h. Description: inhibitors of LMP1-driven NF-kB reporter, dose response, cell-based, HEK293, luciferase, cherry-pick (AID 588343).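 Also: potency of compounds lowering the induced NF-kB luciferase signal.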
For the compound `CCN1CCN(Cc2ccc(NC(=O)c3ccc(C)c(NC(=O)N4CCNC4=O)c3)cc2C(F)(F)F)CC1`, the half-maximal activity concentration (AC50) is 484 nM and 1060 nM and 977 nM.

Take `COc1ccc(O)c2c(=O)c3c(OC)cc4c(c3oc12)C1C=COC1O4` (stereo unspecified): the half-maximal activity concentration (AC50) is 698 nM. Turning to `Cc1ccc(C(=O)Nc2cccc(C(F)(F)F)c2)cc1NC(=O)c1ccno1`, the AC50 was 816 nM and 5400 nM. As to `Nc1ccn([C@@H]2O[C@H](CO)[C@@H](O)[C@@H]2O)c(=O)n1`, the concentration at half-maximal activity (AC50) is 13200 nM. For the compound `Nc1ccn([C@@H]2O[C@H](CO)[C@@H](O)C2O)c(=O)n1` (stereo partly specified), the half-maximal activity concentration (AC50) is 4970 nM. With `CCN1CCN(Cc2ccc(NC(=O)c3ccc(C)c(NC(=O)c4cccc5[nH]ccc45)c3)cc2C(F)(F)F)CC1`, the AC50 was 418 nM and 146 nM.
